{"source": "paper PMC11284896", "about": "(Journal of Translational Internal Medicine, 2024)", "biological_target": "T1, ABCG2 (Homo sapiens, UniProt Q9UNQ0)", "T1 sequence (Q9UNQ0 1-655)": "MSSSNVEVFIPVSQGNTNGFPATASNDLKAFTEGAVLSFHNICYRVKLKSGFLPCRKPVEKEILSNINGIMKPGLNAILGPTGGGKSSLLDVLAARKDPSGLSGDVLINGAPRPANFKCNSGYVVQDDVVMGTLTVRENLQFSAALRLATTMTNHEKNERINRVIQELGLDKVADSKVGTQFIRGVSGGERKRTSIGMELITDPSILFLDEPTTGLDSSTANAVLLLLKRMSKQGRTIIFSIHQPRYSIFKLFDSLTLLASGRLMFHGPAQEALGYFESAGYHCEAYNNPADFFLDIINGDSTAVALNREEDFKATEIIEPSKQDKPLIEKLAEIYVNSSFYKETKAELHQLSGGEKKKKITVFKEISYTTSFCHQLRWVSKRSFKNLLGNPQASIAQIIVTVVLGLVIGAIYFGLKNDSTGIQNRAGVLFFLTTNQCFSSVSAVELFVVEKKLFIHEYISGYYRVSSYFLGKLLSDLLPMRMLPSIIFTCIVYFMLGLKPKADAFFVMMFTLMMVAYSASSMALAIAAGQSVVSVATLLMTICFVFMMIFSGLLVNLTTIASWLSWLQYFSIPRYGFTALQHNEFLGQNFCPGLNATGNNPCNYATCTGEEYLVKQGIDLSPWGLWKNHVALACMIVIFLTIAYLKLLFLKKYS"}
{"smiles": "O=C1c2c(O)ccc(O)c2C(=O)c2c(NCCNCCO)ccc(NCCNCCO)c21", "note": "[mitoxantrone]", "values": [{"measurement": "radiolabelled substrate efflux and accumulation in ABCG2-overexpressing NCI-H460", "result": "the efflux of [^3H]-mitoxantrone from cells overexpressed ABCG2 transporter was considerably diminished in the presence of RN486"}]}
